Source: the supplement of paper PMC10307832

What was measured:
Assay in all cases: relative viability (nuclei count vs DMSO), 5 days (fraction); higher = more cells survive
LOU-NH91 = system: LOU-NH91
Outline: (§1)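 Medians of duplicate plates are given as relative viability. That measure is the nuclei count in treated wells divided by the count in vehicle wells. Counts were taken on 4× images of lung cancer cell lines in 1536-well plates, 5 days after pin-tool dosing the day after seeding with one drug alone or a fixed anchor-drug dose plus five library-drug doses (not always all listed) in √10 steps.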

NCI-H1650 = system: NCI-H1650
Outline: as §1

NCI-H2228 = system: NCI-H2228
Outline: as §1

LC-2-ad = system: LC-2-ad
Outline: as §1

HARA = system: HARA
Outline: as §1

LU99A = system: LU99A
Outline: as §1

BEN = system: BEN
Outline: as §1

SK-LU-1 = system: SK-LU-1
Outline: as §1

NCI-H520 = system: NCI-H520
Outline: as §1

NCI-H1793 = system: NCI-H1793
Outline: as §1

NCI-H1944 = system: NCI-H1944
Outline: as §1

LCLC-103H = system: LCLC-103H
Outline: as §1

NCI-H3122 = system: NCI-H3122
Outline: as §1

COR-L23 = system: COR-L23
Outline: as §1

A-427 = system: A-427
Outline: as §1

NCI-H322M = system: NCI-H322M
Outline: as §1

NCI-H1666 = system: NCI-H1666
Outline: as §1

NCI-H1915 = system: NCI-H1915
Outline: as §1

PC-14 = system: PC-14
Outline: as §1

NCI-H2170 = system: NCI-H2170
Outline: as §1

NCI-H2087 = system: NCI-H2087
Outline: as §1

NCI-H727 = system: NCI-H727
Outline: as §1

EKVX = system: EKVX
Outline: as §1

PC-3 [JPC-3] = system: PC-3 [JPC-3]
Outline: as §1

Structure (SMILES): C=C1C(=O)O[C@@H](CCCCCCCC)[C@@H]1C(=O)O [C-75] + O=C(c1cc(Cc2n[nH]c(=O)c3ccccc23)ccc1F)N1CCN(C(=O)C2CC2)CC1 [Olaparib] (partner 8 µM)
- relative viability (LOU-NH91; first compound 0.08 µM): 0.909
- relative viability (LOU-NH91; first compound 0.253 µM): 0.786
- relative viability (LOU-NH91; first compound 0.8 µM): 0.878
- relative viability (LOU-NH91; first compound 8 µM): 0.88
- relative viability (NCI-H1650; first compound 0.08 µM): 0.802
- relative viability (NCI-H1650; first compound 0.253 µM): 0.878
- relative viability (NCI-H1650; first compound 0.8 µM): 0.827
- relative viability (NCI-H1650; first compound 8 µM): 0.818
- relative viability (NCI-H2228; first compound 0.08 µM): 0.709
- relative viability (NCI-H2228; first compound 0.253 µM): 0.897
- relative viability (NCI-H2228; first compound 0.8 µM): 0.494
- relative viability (NCI-H2228; first compound 2.53 µM): 0.543
- relative viability (NCI-H2228; first compound 8 µM): 0.414
- relative viability (LC-2-ad; first compound 0.08 µM): 0.683
- relative viability (LC-2-ad; first compound 0.253 µM): 0.751
- relative viability (LC-2-ad; first compound 0.8 µM): 0.343
- relative viability (LC-2-ad; first compound 2.53 µM): 0.596
- relative viability (LC-2-ad; first compound 8 µM): 0.668
- relative viability (HARA; first compound 0.08 µM): 0.76
- relative viability (HARA; first compound 0.253 µM): 0.749
- relative viability (HARA; first compound 0.8 µM): 1.04
- relative viability (HARA; first compound 2.53 µM): 0.803
- relative viability (HARA; first compound 8 µM): 0.715
- relative viability (LU99A; first compound 0.08 µM): 0.255
- relative viability (LU99A; first compound 0.253 µM): 0.245
- relative viability (LU99A; first compound 0.8 µM): 0.25
- relative viability (LU99A; first compound 2.53 µM): 0.245
- relative viability (LU99A; first compound 8 µM): 0.205
- relative viability (BEN; first compound 0.08 µM): 1.22
- relative viability (BEN; first compound 0.253 µM): 1.07
- relative viability (BEN; first compound 0.8 µM): 1.04
- relative viability (BEN; first compound 2.53 µM): 0.771
- relative viability (BEN; first compound 8 µM): 0.914
- relative viability (SK-LU-1; first compound 0.08 µM): 0.465
- relative viability (SK-LU-1; first compound 0.253 µM): 0.451
- relative viability (SK-LU-1; first compound 0.8 µM): 0.454
- relative viability (SK-LU-1; first compound 2.53 µM): 0.393
- relative viability (SK-LU-1; first compound 8 µM): 0.377
- relative viability (NCI-H520; first compound 0.08 µM): 0.343
- relative viability (NCI-H520; first compound 0.253 µM): 0.358
- relative viability (NCI-H520; first compound 0.8 µM): 0.269
- relative viability (NCI-H520; first compound 2.53 µM): 0.321
- relative viability (NCI-H520; first compound 8 µM): 0.257
- relative viability (NCI-H1793; first compound 0.08 µM): 0.766
- relative viability (NCI-H1793; first compound 0.253 µM): 0.988
- relative viability (NCI-H1793; first compound 2.53 µM): 0.705
- relative viability (NCI-H1793; first compound 8 µM): 0.83
- relative viability (NCI-H1944; first compound 0.08 µM): 0.381
- relative viability (NCI-H1944; first compound 0.253 µM): 0.419
- relative viability (NCI-H1944; first compound 0.8 µM): 0.353
- relative viability (NCI-H1944; first compound 2.53 µM): 0.392
- relative viability (NCI-H1944; first compound 8 µM): 0.428
- relative viability (LCLC-103H; first compound 0.08 µM): 0.8
- relative viability (LCLC-103H; first compound 0.253 µM): 0.719
- relative viability (LCLC-103H; first compound 0.8 µM): 0.697
- relative viability (LCLC-103H; first compound 2.53 µM): 0.641
- relative viability (LCLC-103H; first compound 8 µM): 0.767
- relative viability (NCI-H3122; first compound 0.08 µM): 0.662
- relative viability (NCI-H3122; first compound 0.253 µM): 0.636
- relative viability (NCI-H3122; first compound 0.8 µM): 0.567
- relative viability (NCI-H3122; first compound 2.53 µM): 0.51
- relative viability (NCI-H3122; first compound 8 µM): 0.635
- relative viability (COR-L23; first compound 0.08 µM): 0.353
- relative viability (COR-L23; first compound 0.253 µM): 0.216
- relative viability (COR-L23; first compound 0.8 µM): 0.284
- relative viability (COR-L23; first compound 2.53 µM): 0.325
- relative viability (COR-L23; first compound 8 µM): 0.319
- relative viability (A-427; first compound 0.08 µM): 0.718
- relative viability (A-427; first compound 0.253 µM): 0.69
- relative viability (A-427; first compound 0.8 µM): 0.678
- relative viability (A-427; first compound 2.53 µM): 0.708
- relative viability (A-427; first compound 8 µM): 0.597
- relative viability (NCI-H322M; first compound 0.08 µM): 0.764
- relative viability (NCI-H322M; first compound 0.253 µM): 0.965
- relative viability (NCI-H322M; first compound 0.8 µM): 0.754
- relative viability (NCI-H322M; first compound 8 µM): 0.764
- relative viability (NCI-H1666; first compound 0.08 µM): 0.681
- relative viability (NCI-H1666; first compound 0.253 µM): 0.79
- relative viability (NCI-H1666; first compound 0.8 µM): 0.678
- relative viability (NCI-H1666; first compound 8 µM): 0.653
- relative viability (NCI-H1915; first compound 0.08 µM): 0.243
- relative viability (NCI-H1915; first compound 0.253 µM): 0.242
- relative viability (NCI-H1915; first compound 0.8 µM): 0.261
- relative viability (NCI-H1915; first compound 2.53 µM): 0.262
- relative viability (NCI-H1915; first compound 8 µM): 0.257
- relative viability (PC-14; first compound 0.08 µM): 0.276
- relative viability (PC-14; first compound 0.253 µM): 0.257
- relative viability (PC-14; first compound 0.8 µM): 0.296
- relative viability (PC-14; first compound 2.53 µM): 0.252
- relative viability (PC-14; first compound 8 µM): 0.308
- relative viability (NCI-H2170; first compound 0.08 µM): 0.594
- relative viability (NCI-H2170; first compound 0.253 µM): 0.633
- relative viability (NCI-H2170; first compound 0.8 µM): 0.541
- relative viability (NCI-H2170; first compound 2.53 µM): 0.647
- relative viability (NCI-H2170; first compound 8 µM): 0.627
- relative viability (NCI-H2087; first compound 0.08 µM): 0.643
- relative viability (NCI-H2087; first compound 0.253 µM): 0.626
- relative viability (NCI-H2087; first compound 0.8 µM): 0.584
- relative viability (NCI-H2087; first compound 2.53 µM): 0.468
- relative viability (NCI-H2087; first compound 8 µM): 0.423
- relative viability (NCI-H727; first compound 0.08 µM): 0.69
- relative viability (NCI-H727; first compound 0.253 µM): 0.865
- relative viability (NCI-H727; first compound 0.8 µM): 0.671
- relative viability (NCI-H727; first compound 2.53 µM): 0.371
- relative viability (NCI-H727; first compound 8 µM): 0.636
- relative viability (EKVX; first compound 0.08 µM): 0.811
- relative viability (EKVX; first compound 0.253 µM): 0.884
- relative viability (EKVX; first compound 0.8 µM): 0.837
- relative viability (EKVX; first compound 8 µM): 0.759
- relative viability (PC-3 [JPC-3]; first compound 0.08 µM): 1.13
- relative viability (PC-3 [JPC-3]; first compound 0.253 µM): 1.02
- relative viability (PC-3 [JPC-3]; first compound 0.8 µM): 1.11
- relative viability (PC-3 [JPC-3]; first compound 2.53 µM): 1.03
- relative viability (PC-3 [JPC-3]; first compound 8 µM): 1.2
